Usually IC50 stands for the point on the concentration scale where inhibition reaches its midpoint. Read a low IC50 as inhibition by little substance.

For the assay, the target named is T1, human mPGES-1 (Homo sapiens, UniProt O14684).
T1 sequence (O14684 1-152): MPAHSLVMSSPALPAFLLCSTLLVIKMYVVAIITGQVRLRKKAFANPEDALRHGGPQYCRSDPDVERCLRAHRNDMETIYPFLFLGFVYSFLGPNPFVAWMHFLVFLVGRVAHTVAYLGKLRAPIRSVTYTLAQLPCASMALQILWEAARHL
Kind of assay: Microsomal prostaglandin E synthase biochemical assay. The note with it: microsome preparation containing human mPGES-1; PGH2 10.8 μM, GSH 2.5 mM, pH 6.8; PGE2 by HTRF; average of at least n=2. The gist of the method: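 Human mPGES-1 microsomes at 2 μg/mL were pre-incubated 15 min with compound (60 μM to 0.002 μM) in 50 mM potassium phosphate pH 6.8 with 2.5 mM GSH. The reaction was started with 10.8 μM PGH2 and stopped after 1 minute with acidic ferric chloride/citrate. PGE2 was quantified by HTRF; IC50 is the mean of at least 2 runs.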
Background: In TR-FRET formats the signal depends on donor and acceptor labels being close together.

The compound `COc1ncc(-c2cccc(S(=O)(=O)Nc3ccccc3S(N)(=O)=O)c2)cn1` [Example 165, 3-(2-Methoxypyrimidin-5-yl)-N-(2-sulfamoylphenyl)benzenesulfonamide] showed an IC50 of 2300 nM. This lies in the single-digit micromolar range.

`Cc1ccncc1-c1cccc(S(=O)(=O)Nc2ccccc2S(N)(=O)=O)c1` [Example 166, 3-(4-Methylpyridin-3-yl)-N-(2-sulfamoylphenyl)benzenesulfonamide] returned an IC50 of 4800 nM.

The compound `COc1ncccc1-c1cccc(S(=O)(=O)Nc2ccccc2S(N)(=O)=O)c1` [Example 167, 3-(2-Methoxypyridin-3-yl)-N-(2-sulfamoylphenyl)benzenesulfonamide] returned an IC50 of 3800 nM. The IC50 values of the last two compounds are within 1.5-fold of each other.

Consider `NS(=O)(=O)c1ccccc1NS(=O)(=O)c1cccc(-c2cncc(Cl)c2)c1` [Example 168, 2-[[3-(5-Chloropyridin-3-yl)phenyl]sulfonylamino]benzenesulfonamide], for which the IC50 was found to be 630 nM. This IC50 lies about 6-fold lower than the previous one.

In turn, `COc1ncc(-c2cccc(S(=O)(=O)Nc3ccccc3S(N)(=O)=O)c2)cc1Cl` [Example 169, 3-(5-Chloro-6-methoxy-pyridin-3-yl)-N-(2-sulfamoylphenyl)benzenesulfonamide] displayed an IC50 of 22 nM. This IC50 is about 29-fold lower than that of the compound before.

On to `CN(C)c1ccc(-c2cccc(S(=O)(=O)Nc3ccccc3S(N)(=O)=O)c2)cn1` [Example 170, 3-(6-Dimethylaminopyridin-3-yl)-N-(2-sulfamoylphenyl)benzenesulfonamide], for which the IC50 was 290 nM.

Compound `NS(=O)(=O)c1ccccc1NS(=O)(=O)c1cccc(-c2cccc(CO)c2)c1` [Example 171, 2-[[3-[3-(Hydroxymethyl)phenyl]phenyl]sulfonylamino]benzenesulfonamide] showed a concentration for half-maximal inhibition (IC50) of 1700 nM.

Regarding `NS(=O)(=O)c1ccccc1NS(=O)(=O)c1cccc(-c2ccc(CO)cc2)c1` [Example 172, 2-[[3-[4-(Hydroxymethyl)phenyl]phenyl]sulfonylamino]benzenesulfonamide], the IC50 amounted to 7300 nM.

`NS(=O)(=O)c1ccccc1NS(=O)(=O)c1ccc(-c2ccc(Cl)c(Cl)c2)cc1` [Example 173, 2-[[4-(3,4-Dichlorophenyl)phenyl]sulfonylamino]benzenesulfonamide] returned a half-inhibitory concentration (IC50) of 1500 nM.

Regarding `NS(=O)(=O)c1ccccc1NS(=O)(=O)c1cccc(-c2ccc(Cl)c(Cl)c2)c1` [Example 174, 2-[[3-(3,4-Dichlorophenyl)phenyl]sulfonylamino]benzenesulfonamide], the midpoint of inhibition, the IC50, lay at 220 nM.

Turning to `NS(=O)(=O)c1ccccc1NS(=O)(=O)c1ccc(Oc2ccc(Cl)cc2)cc1` [Example 175, 2-[[4-(4-Chlorophenoxy)phenyl]sulfonylamino]benzenesulfonamide], inhibition was half-maximal at 3700 nM (IC50).

The compound `Cc1cc(NC(=O)Nc2ccc(Cl)cc2)ccc1S(=O)(=O)Nc1ccccc1S(N)(=O)=O` [Example 176, 3-(4-Chlorophenyl)-1-[3-methyl-4-[(2-sulfamoylphenyl)sulfamoyl]phenyl]urea] returned a concentration for half-maximal inhibition (IC50) of 900 nM.

The compound `CNS(=O)(=O)c1ccc2c(c1)-c1cc(S(=O)(=O)Nc3ccccc3S(N)(=O)=O)ccc1S2(=O)=O` [Example 177, N-Methyl-N′-(2-sulfamoylphenyl)dibenzo[b,d]thiophene-2,8-disulfonamide 5,5-dioxide] had an IC50 of 2200 nM.

The compound `NS(=O)(=O)c1cc(F)c(F)cc1NS(=O)(=O)c1cccc(Cl)c1Cl` [Example 178, 2,3-Dichloro-N-(4,5-difluoro-2-sulfamoylphenyl)benzenesulfonamide] registered an IC50 of 2700 nM.

Compound `N#Cc1ccc(S(N)(=O)=O)c(NS(=O)(=O)CCc2ccc(Cl)c(Cl)c2)c1` [Example 180, 4-Cyano-2-(2-(3,4-dichlorophenyl)ethylsulfonamido)benzenesulfonamide] returned an IC50 of 1400 nM.

Consider `COc1cc(Cl)ccc1CCS(=O)(=O)Nc1cc(C#N)ccc1S(N)(=O)=O` [Example 181, 2-(2-(4-Chloro-2-methoxyphenyl)ethylsulfonamido)-4-cyanobenzenesulfonamide], for which the IC50 is 370 nM.

In turn, `COc1cc(Cl)ccc1CCS(=O)(=O)Nc1ccc(C#N)cc1S(N)(=O)=O` [Example 182, 2-(2-(4-Chloro-2-methoxyphenyl)ethylsulfonamido)-5-cyanobenzenesulfonamide] returned a half-inhibitory concentration (IC50) of 520 nM. This IC50 and that of the compound before are within 1.5-fold of each other.

Compound `CC(C)(C)C#Cc1ccc(CCS(=O)(=O)Nc2ccccc2S(N)(=O)=O)cc1` [Example 183, 2-(2-(4-(3,3-dimethylbut-1-ynyl)phenyl)ethylsulfonamido)benzenesulfonamide] yielded a half-inhibitory concentration (IC50) of 81 nM.

Compound `CC(C)(O)C#Cc1ccc(CCS(=O)(=O)Nc2ccccc2S(N)(=O)=O)cc1` [Example 184, 2-(2-(4-(3-Hydroxy-3-methylbut-1-ynyl)phenyl)ethylsulfonamido)benzenesulfonamide] displayed an IC50 of 9600 nM.

With `CC(C)(C)C#Cc1cccc(S(=O)(=O)Nc2ccccc2S(N)(=O)=O)c1` [Example 185, 3-(3,3-Dimethylbut-1-ynyl)-N-(2-sulfamoylphenyl)benzenesulfonamide], the IC50 was determined as 2500 nM.

Compound `COc1cc(Cl)ccc1CCS(=O)(=O)Nc1ccccc1S(N)(=O)=O` [Example 186, 2-(2-(4-Chloro-2-methoxyphenyl)ethylsulfonamido)benzenesulfonamide] returned an IC50 of 250 nM.

Consider `CC(C)(C)C#Cc1ccc(CCS(=O)(=O)Nc2ccccc2S(N)(=O)=O)cn1` [Example 187, 2-(2-(6-(3,3-Dimethylbut-1-ynyl)pyridin-3-yl)ethylsulfonamido)benzenesulfonamide], for which the IC50 came to 680 nM.

`NS(=O)(=O)c1ccccc1NS(=O)(=O)CCc1ccc(C#CC2CCCCC2)nc1` [Example 188, 2-(2-(6-(cyclohexylethynyl)pyridin-3-yl)ethylsulfonamido)benzenesulfonamide] had an IC50 of 270 nM.

As for `Cc1ccc(NS(=O)(=O)CCc2ccc(Br)cc2)c(S(N)(=O)=O)c1` [Example 189, 2-(2-(4-Bromophenyl)ethylsulfonamido)-5-methylbenzenesulfonamide], the IC50 is 1400 nM.

Compound `Cc1ccc(NS(=O)(=O)/C=C/c2ccc(Br)cc2)c(S(N)(=O)=O)c1` [Example 190, (E)-2-(2-(4-Bromophenyl)vinylsulfonamido)-5-methylbenzenesulfonamide] came in with an IC50 of 680 nM.

For the compound `Cc1nc(-c2cccc(S(=O)(=O)Nc3ccccc3S(N)(=O)=O)c2)cs1` [Example 191, 3-(2-Methylthiazol-4-yl)-N-(2-sulfamoylphenyl)benzenesulfonamide], the IC50 came out at 8300 nM.

For `NS(=O)(=O)c1ccccc1NS(=O)(=O)/C=C/c1cccc(C(F)(F)F)c1` [Example 192, (E)-2-(2-(3-(Trifluoromethyl)phenyl)vinylsulfonamido)benzenesulfonamide], the IC50 turned out to be 3200 nM.

As for `NS(=O)(=O)c1ccccc1NS(=O)(=O)/C=C/c1ccccc1F` [Example 193, (E)-2-(2-(2-Fluorophenyl)vinylsulfonamido)benzenesulfonamide], the concentration for half-maximal inhibition (IC50) came out at 7900 nM.

`COc1cc(Cl)ccc1CCS(=O)(=O)Nc1ccc(Cl)cc1S(N)(=O)=O` [Example 194, 5-Chloro-2-(2-(4-chloro-2-methoxyphenyl)ethylsulfonamido)benzenesulfonamide]: the IC50 was determined as 1000 nM.

For the compound `NS(=O)(=O)c1cc(Cl)ccc1NS(=O)(=O)c1cccc(Cl)c1Cl` [Example 195, 2,3-Dichloro-N-(4-chloro-2-sulfamoylphenyl)benzenesulfonamide], the IC50 is 5500 nM. Compared with the last compound, the IC50 is about 5.5-fold higher.

Consider `NS(=O)(=O)c1c(F)cc(F)cc1NS(=O)(=O)c1cccc(Cl)c1Cl` [Example 196, 2,3-Dichloro-N-(3,5-difluoro-2-sulfamoylphenyl)benzenesulfonamide], for which the IC50 was determined as 1900 nM.

`NS(=O)(=O)c1c(F)cc(F)cc1NS(=O)(=O)CCc1ccc(Cl)c(Cl)c1` [Example 197, 2-(2-(3,4-Dichlorophenyl)ethylsulfonamido)-4,6-difluorobenzenesulfonamide] displayed a concentration for half-maximal inhibition (IC50) of 640 nM.

On to `COc1cc(Cl)ccc1CCS(=O)(=O)Nc1cc(F)cc(F)c1S(N)(=O)=O` [Example 198, 2-(2-(4-Chloro-2-methoxyphenyl)ethylsulfonamido)-4,6-difluorobenzenesulfonamide], for which the IC50 turned out to be 290 nM.

The compound `N#Cc1ccc(NS(=O)(=O)CCc2ccc(Cl)c(Cl)c2)c(S(N)(=O)=O)c1` [Example 199, 5-Cyano-2-(2-(3,4-dichlorophenyl)ethylsulfonamido)benzenesulfonamide] showed an IC50 of 2500 nM.

In the case of `Cc1ccc(S(N)(=O)=O)c(NS(=O)(=O)CCc2ccc(Cl)c(Cl)c2)c1` [Example 200], half-maximal inhibition (IC50) required 1400 nM.

For `COc1cc(Cl)ccc1CCS(=O)(=O)Nc1cc(C)ccc1S(N)(=O)=O` [Example 201, 2-(2-(4-Chloro-2-methoxyphenyl)ethylsulfonamido)-4-methylbenzenesulfonamide], the 50% inhibitory concentration (IC50) was 720 nM.

In turn, `NS(=O)(=O)c1cc(Cl)ccc1NS(=O)(=O)CCc1ccc(Cl)c(Cl)c1` [Example 202, 5-Chloro-2-(2-(3,4-dichlorophenyl)ethylsulfonamido)benzenesulfonamide] had an IC50 of 2900 nM.

In the case of `COc1ncc(-c2cccc(S(=O)(=O)Nc3ccncc3S(N)(=O)=O)c2)cc1Cl` [Example 203, 4-(3-(5-Chloro-6-methoxypyridin-3-yl)phenylsulfonamido)pyridine-3-sulfonamide], inhibition was half-maximal at 2100 nM (IC50). This IC50 and that of the compound before are within 1.5-fold of each other.

Turning to `NS(=O)(=O)c1cnccc1NS(=O)(=O)CCc1ccc(-c2cc3ccccc3o2)cc1` [Example 204, 4-(2-(4-(Benzofuran-2-yl)phenyl)ethylsulfonamido)pyridine-3-sulfonamide], the IC50 turned out to be 620 nM.

`COc1cc(Cl)ccc1CCS(=O)(=O)Nc1ccc(C)cc1S(N)(=O)=O` [Example 205, 2-(2-(4-Chloro-2-methoxyphenyl)ethylsulfonamido)-5-methylbenzenesulfonamide] displayed a 50% inhibitory concentration (IC50) of 560 nM.

For the origin of these results see patent US20090163586A1, “Bis-(Sulfonylamino) Derivatives in Therapy 205” (AstraZeneca AB, priority 2007, published 2009).
